From US11485728B2, “Small molecules for the treatment of autoimmune diseases and cancer” (Athos Therapeutics, Inc., priority 2020, dated 2022)

How the values were obtained:
[1] = system: HT-29 colorectal cancer cells; assay: HT-29 cell viability (Real-Time-Glo); format: cell-based; conditions: for growth of HT-29 colorectal cancer cells: luminescence at 72 h; for IC50: Homo sapiens, HT-29, 72 hr, read-out: IC50, Cell line: HT-29
Procedure: Equal volume of 2× RealTime-Glo™ reagent (2 μl of MT Cell Viability Substrate 1,000×, and 2 μl of NanoLuc® Enzyme 1,000×, per 1 ml of media, Promega) was added to each well and cells were incubated at 37° C. Luminescence was evaluated at 72 h.
(§1) To determine the plating density for cell viability assays, for each cell line, cells were counted and diluted to final densities of 2.5, 5, 10 and 20 thousand per 100 μl of their respective growth media per well in 96 well plates. A Promega Real-Time-Glo cell viability kit was used to determine the optimal concentration for cell plating so that each cell line would be within the linear part of its growth curve after 72 hrs in culture. […] Test compounds were then added at different concentrations for the creation of six-point curve and cell density was determined using the Promega Real-Time-Glo cell viability kit after 24, 48, and 72 hrs in culture.
Specifically, the Promega Real-Time-Glo cell viability kit was used to determine the optimal concentration for cell plating so that each cell line would be within the linear part of its growth curve after 72 hrs in culture. […] Test compounds are then added at different concentrations for the creation of six-point curve and cell density is determined using the Promega Real-Time-Glo cell viability kit after 24, 48, and 72 hrs in culture. […]

[2] = In-vitro half-life in rat liver microsomes; format: in vitro ADME; conditions: Rat liver microsomes 0.5 mg/mL; 1 μg/mL drug; NRS; read-out: Metabolic Half-life
Procedure: In each of the species (human, rat, mouse) of liver matrix to be tested, a working concentration of 2 μg/mL was prepared of each test article from the 0.5 mg/mL DMSO stock solution by adding 3 μL of 0.5 mg/mL test article stock solution to 747 μL of the 1 mg/mL liver matrix. Incubation was performed at 37±2° C. with gentle, continuous mixing in shaking water bath in 2.0 mL-well capacity 96-Deepwell plates (96-DWP). Samples were retrieved in duplicate at the following time points: 0, 5, 10, 15, 30 and 60 minutes. The final mixture contained 1 μg/mL of drug and 0.5 mg/mL of liver matrix. First, 50 μL of test articles in liver matrix was added to the 96-DWP and pre-warmed the mixture in the 96-DWP for 2 minutes in the 37° C. water bath. The enzymatic reaction was started by the addition of 50 μL of the corresponding 2× NADPH regenerating system (NRS) cofactor solution to all sample wells and stopped by the addition of 300 μL of stop solution (acetonitrile containing 10 ng/mL Tolbutamide as an internal standard (I.Std.). The samples were agitated for 10 minutes and then centrifuged for 20 minutes at 4500 rpm. 25 μL of supernatant was diluted with 475 μL acetonitrile containing I. Std. into a new 96-DWPs for LC-MS/MS analysis.
Half-life calculations were generated and calculated by Graphpad Prism® software. The half-life of test compound was calculated based on the first-order reaction kinetics. The data was transformed to linear regression (y=log(y) where “y” axis represents the % compound remaining at any given time with respect to time 0 minutes; “x” axis represents time in minutes) in order to calculate the half-life.
A comparison of metabolic stability in time-course incubation experiments in varying species of liver can provide information of pharmacokinetic properties of drugs attributable to species-related differences in hepatic metabolism. The results of these experiments often assist in further applications such as assessing in vitro metabolite profiling and choosing relevant species for toxicology studies based on similarities relative to the metabolic stability to the human profile. For these experiments, the test compound was tested in parallel with a positive control, Dasatinab, in an enzymatic reaction solution of each species (human and rat) of liver microsomes containing a NADPH regenerating system (NRS). The final mixture contained 1 μg/mL of drug and 0.5 mg/mL of liver matrix. Incubations were performed at 37±2° C. with gentle, continuous mixing in shaking water bath in 96-Deep well plates. The stability of the test compound is monitored using fast, specific and sensitive LC/MS/MS analysis.

[3] = system: C57BL/6 mice with DSS colitis; assay: DSS colitis in C57BL/6 mice; format: in vivo; conditions: for Clinical Score: includes weight, bleeding, diarrhea, rectal prolapse; for protection against colitis induced weight loss / colitis-induced weight loss / colon length shortening: daily oral gavage; for protection against colitis induced weight loss: after d11; for colitis-induced weight loss / colon length shortening: d12; for Clinical Score: key: −: indicates no statistically significant effect in the variable measured when compared with the control group; +: indicates a statistically significant difference in the variable measured when compared with the control group; ++: indicates measurements that include multiple variables in the calculation of their differences when compared with the control group, and represents the presence of significant changes across all variable measurements
Procedure: Dextran sodium sulfate (DSS) was added to the water 24 hrs after compound administration and weight was measured daily.
C57BL/6 mice (20-22 grams) were fed ad lib and assigned to 4 different groups (n=8/group). […] A control group received vehicle alone. After 24 hrs, mice were weighed and DSS was added to their drinking water. Mice were then treated with the test compounds and weighed daily and the DSS water was replenished every 72 hrs for 5 days, at which point, it was replaced by regular drinking water. Mice were sacrificed on day twelve and clinical scored was assessed. Intestinal tissue for and blood were also collected. Tissues were either flash frozen and kept in −80° C. for RNA and protein isolation or placed in 10% formalin solution for future histological analysis. Blood was spun at 5K rpm for 5 min and serum was collected and kept at −20° C. for multiplex cytokine analysis.
DSS colitis mouse model: C57BL/6 mice (20-22 grains) are fed ad lib and assigned to different groups (n=8/group). […] A control group receives vehicle alone. After 24 h, mice are weighed and DSS is added to their drinking water. Mice are then treated with the test compounds and weighed daily and the DSS water is replenished every 72 liars for 5 days, at which point, it is replaced by regular drinking water. Mice are sacrificed on day twelve and clinical scored was assessed. Intestinal tissue for and blood are also collected. Tissues are either flash frozen and kept in −80° C. for RNA and protein isolation or placed in 10% formalin solution for future histological analysis.

HCT-116 = HCT-116 cell viability (Real-Time-Glo); format: cell-based; conditions: Homo sapiens, 72 hr, read-out: IC50, Cell line: HCT-116
Procedure: as §1

A-498 = A-498 kidney cancer cell viability (Real-Time-Glo); format: cell-based; conditions: Homo sapiens, A498; 72 hr; read-out: IC50, Cell line: A-498
Procedure: To determine the plating density for cell viability assays, for each cell line, cells were counted and diluted to final densities of 2.5, 5, 10 and 20 thousand per 100 μl of their respective growth media per well in 96 well plates. A Promega Real-Time-Glo cell viability kit was used to determine the optimal concentration for cell plating so that each cell line would be within the linear part of its growth curve after 72 hrs in culture. For the determination of test compound IC50s different cancer cell lines were plated in 96 well plates in the pre-determined optimal density for each cell line. Test compounds were then added at different concentrations for the creation of six-point curve and cell density was determined using the Promega Real-Time-Glo cell viability kit after 24, 48, and 72 hrs in culture. Test compound 72 hr IC50s were calculated using the AAT Bioquest IC50 calculator.

[4] = 25 mg/kg PO daily, sacrificed day twelve
[5] = 50 mg/kg daily oral, d12 after DSS induction, vs vehicle

| Compound | half-life at 1 μg/mL [2] | IC50 [1] | IC50 (HCT-116) | IC50 (A-498) | growth of HT-29 colorectal cancer cells [1] | effect on the effects of DSS colitis (in words) ([3]; 25 mg/kg PO daily) | Colon Length ([3]; 25 mg/kg PO daily, day twelve) | Clinical Score ([3]; 25 mg/kg PO daily, day twelve) | DSS Efficacy [3, 4] | DSS-induced weight loss ([3]; 50 mg/kg daily oral) | Colon Length [3, 5] | protection against colitis induced weight loss [3] | colitis-induced weight loss ([3]; vs vehicle) | colon length shortening ([3]; vs vehicle) | effect on overall efficacy, clinical score and colon length (in words) ([3]; 25 mg/kg PO daily) | DSS Efficacy ([3]; 25 mg/kg PO daily, day twelve) |
| --- | --- | --- | --- | --- | --- | --- | --- | --- | --- | --- | --- | --- | --- | --- | --- | --- |
| COc1cc2c(NC3CCS(=O)(=O)CC3)nc(N3CCC(F)(F)CC3)nc2cc1OCCCN1CCCC1 [Compound 1, 4-((2-(4,4-difluoropiperidin-1-yl)-6-methoxy-7-(3-(pyrrolidin-1-yl)propoxy)quinazolin-4-yl)amino)tetrahydro-2H-thiopyran 1,1-dioxide] | > 1 h |  |  |  | potent anti-cancer activity | alleviation of the effects of DSS colitis | + | + | + | resulted in increased weight | increased | significant protection against colitis induced weight loss | significantly prevented | significantly prevented |  |  |
| COc1cc2c(NC3CCOCC3)nc(N3CCC(F)(F)CC3)nc2cc1OCCCN1CCCC1 [Compound 2, 2-(4,4-difluoropiperidin-1-yl)-6-methoxy-7-(3-(pyrrolidin-1-yl)propoxy)-N-(tetrahydro-2H-pyran-4-yl)quinazolin-4-amine] | 0.828 h | 1 to 5 µM |  |  | potent anti-cancer activity | alleviation of the effects of DSS colitis | ++ | ++ | ++ |  |  | significant protection against colitis induced weight loss | significantly prevented | significantly prevented | very strong effect |  |
| COCCNc1nc(N2CCC(F)(F)CC2)nc2cc(OCCCN3CCCC3)c(OC)cc12 [Compound 4, 2-(4,4-difluoropiperidin-1-yl)-6-methoxy-N-(2-methoxyethyl)-7-(3-(pyrrolidin-1-yl)propoxy)quinazolin-4-amine] | > 1 h | 1 to 5 µM | 1 to 5 µM |  | potent anti-cancer activity |  |  |  |  |  |  |  |  |  |  |  |
| COc1cc2c(NC3CCOCC3)nc(N3CCCC3)nc2cc1OCCCN1CCCC1 [Compound 164, 6-methoxy-2-(pyrrolidin-1-yl)-7-(3-(pyrrolidin-1-yl)propoxy)-N-(tetrahydro-2H-pyran-4-yl)quinazolin-4-amine] | > 1 h |  | 1 to 5 µM |  |  |  |  |  |  |  |  |  |  |  |  | ++ |
| COc1cc2c(NC3CCN(C(C)C)CC3)nc(N3CCC(F)(F)CC3)nc2cc1OCCCN1CCCC1 [Compound 400, 2-(4,4-difluoropiperidin-1-yl)-N-(1-isopropylpiperidin-4-yl)-6-methoxy-7-(3-(pyrrolidin-1-yl)propoxy)quinazolin-4-amine, reference compound] | > 1 h | 5 to 10 µM |  | 10 to 20 µM |  | no effect | − | − | − | failed to increase DSS-induced weight loss | not |  |  |  |  |  |

Continued, in another order:

| half-life at 1 μg/mL [2] | IC50 [1] | IC50 (HCT-116) | IC50 (A-498) | Compound | growth of HT-29 colorectal cancer cells [1] | effect on the effects of DSS colitis (in words) ([3]; 25 mg/kg PO daily) | Colon Length ([3]; 25 mg/kg PO daily, day twelve) | Clinical Score ([3]; 25 mg/kg PO daily, day twelve) | DSS Efficacy [3, 4] | DSS-induced weight loss ([3]; 50 mg/kg daily oral) | Colon Length [3, 5] | protection against colitis induced weight loss [3] | colitis-induced weight loss ([3]; vs vehicle) | colon length shortening ([3]; vs vehicle) | effect on overall efficacy, clinical score and colon length (in words) ([3]; 25 mg/kg PO daily) | DSS Efficacy ([3]; 25 mg/kg PO daily, day twelve) |
| --- | --- | --- | --- | --- | --- | --- | --- | --- | --- | --- | --- | --- | --- | --- | --- | --- |
| > 1 h |  | 1 to 5 µM |  | COc1cc2c(NC3CCOCC3)nc(N3CCC3)nc2cc1OCCCN1CCCC1 [Compound 174, 2-(azetidin-1-yl)-6-methoxy-7-(3-(pyrrolidin-1-yl)propoxy)-N-(tetrahydro-2H-pyran-4-yl)quinazolin-4-amine] |  |  |  |  |  |  |  |  |  |  |  |  |
| > 1 h |  | 1 to 5 µM | 5 to 10 µM | COc1cc2c(NC3CCN(C(C)C)CC3)nc(N3CCC3)nc2cc1OCCCN1CCCC1 [Compound 234, 2-(azetidin-1-yl)-N-(1-isopropylpiperidin-4-yl)-6-methoxy-7-(3-(pyrrolidin-1-yl)propoxy)quinazolin-4-amine] |  |  |  |  |  |  |  |  |  |  |  |  |
| > 1 h |  | 1 to 5 µM | 5 to 10 µM | COc1cc2c(NC3CCN(C(C)C)CC3)nc(C#N)nc2cc1OCCCN1CCCC1 [Compound 235, 4-((1-isopropylpiperidin-4-yl)amino)-6-methoxy-7-(3-(pyrrolidin-1-yl)propoxy)quinazoline-2-carbonitrile] |  |  |  |  |  |  |  |  |  |  |  |  |
